Legend:
Format in all cases: functional, tissue-based
Details in all cases: Cavia porcellus, 0.5 h
[1] = tested on: Ileum; assay: Antispasmodic activity in guinea pig ileum assessed as inhibition of electrically-induced tissue contraction after 30 mins
[2] = tested on: Ileum; assay: Antispasmodic activity in guinea pig ileum assessed as inhibition of acetylcholine-induced tissue contraction after 30 mins
[3] = tested on: Ileum; assay: Antispasmodic activity in guinea pig ileum assessed as inhibition of histamine-induced tissue contraction after 30 mins

COc1ccc2c(c1)/C=C\N=C\c1cc(O)ccc1CC2=O
IC50 [1]: 86 µM | IC50 [2]: 85 µM | IC50 [3]: 59 µM

COc1ccc2c(c1)/C=C\N=C\c1cc(OC)ccc1CC2=O
IC50 [1]: 66 µM | IC50 [2]: 58 µM | IC50 [3]: 68 µM

O=C1Cc2ccc(O)cc2/C=N/CCc2cc(O)ccc21
IC50 [1]: 21 µM | IC50 [2]: 26 µM | IC50 [3]: 26 µM

COc1ccc2c(c1)/C=N/CCc1cc(OC)ccc1C(=O)C2
IC50 [1]: 19 µM | IC50 [2]: 20 µM | IC50 [3]: 22 µM

O=C1Cc2ccc(O)cc2/C=N/C=C\c2cc(O)ccc21 [CONSTRICTOSINE]
IC50 [1]: 66 µM | IC50 [2]: 75 µM | IC50 [3]: 51 µM

Reference: ChEMBL document CHEMBL1158319, “New protopine and benzyltetrahydroprotoberberine alkaloids from Aristolochia constricta and their activity on isolated guinea-pig ileum” (J Nat Prod, 1997)
